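Protocol summary: plate cells (96-well), add compound at 5 concentrations, incubate 48 h, interpolate endpoints linearly. GI50 marks 50% less growth.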 Calls of active or inactive are those of the source. Cut-off read from the data, not from the text of the source: active = GI50 up to about 1.1 µM and inactive = higher.
Assays:
Experiment in all cases: NCI tumour cell line growth inhibition, 48 h
CAKI-1 = tested on: CAKI-1
SR = tested on: SR
BT-549 = tested on: BT-549
NCI/ADR-RES = tested on: NCI/ADR-RES
NCI-H460 = tested on: NCI-H460
A498 = tested on: A498
Hs-578T = tested on: Hs-578T
KM12 = tested on: KM12
Malme-3M = tested on: Malme-3M
OVCAR-8 = tested on: OVCAR-8
OVCAR-4 = tested on: OVCAR-4
DU-145 = tested on: DU-145
ACHN = tested on: ACHN
SF-539 = tested on: SF-539
HCT-15 = tested on: HCT-15
TK-10 = tested on: TK-10
U-251 = tested on: U-251
DMS-114 = tested on: DMS-114
RPMI-8226 = tested on: RPMI-8226
SW-620 = tested on: SW-620

SMILES	GI50 (CAKI-1)	GI50 (SR)	GI50 (BT-549)	GI50 (NCI/ADR-RES)	GI50 (NCI-H460)	GI50 (A498)	GI50 (Hs-578T)	GI50 (KM12)	GI50 (Malme-3M)	GI50 (OVCAR-8)	GI50 (OVCAR-4)	GI50 (DU-145)	GI50 (ACHN)	GI50 (SF-539)	GI50 (HCT-15) [µM]	GI50 (TK-10)	GI50 (U-251)	GI50 (DMS-114)	GI50 (RPMI-8226)	GI50 (SW-620)
N=C(N)NCCCC(NCc1c2ccccc2nc2ccccc12)C(=O)O (stereo unspecified)	26.6 µM (inactive)	14.3 µM (inactive)	30.9 µM (inactive)	28.5 µM (inactive)	36.1 µM (inactive)	> 100 µM (inactive)	69.7 µM (inactive)	21.6 µM (inactive)	> 73.1 µM (inactive)	25.7 µM (inactive)	29.2 µM (inactive)	> 100 µM (inactive)	31.5 µM (inactive)	33 µM (inactive)	29.4	49.5 µM (inactive)	47.2 µM (inactive)	23.3 µM (inactive)	10.4 µM (inactive)	25.5 µM (inactive)
CC(C)CCCCCCCCCCCCC(=O)NCC(=O)NC1C(C)OC(Nc2[nH]cnc3ncnc2-3)C(O)C1O (stereo unspecified)	< 0.01 µM (active)	0.00153 µM (active)	–	0.00221 µM (active)	0.000158 µM (active)	–	–	0.000341 µM (active)	0.000332 µM (active)	0.000153 µM (active)	0.00098 µM (active)	0.0022 µM (active)	0.000468 µM (active)	0.000931 µM (active)	< 0.0247	0.00102 µM (active)	0.000425 µM (active)	< 0.0316 µM (active)	0.000568 µM (active)	0.00101 µM (active)
CN(C)C(=O)Oc1c(Br)cc(Br)cc1C(=O)OCc1ccccc1	23.3 µM (inactive)	–	–	18.5 µM (inactive)	21.8 µM (inactive)	23 µM (inactive)	–	28.7 µM (inactive)	24.9 µM (inactive)	32.4 µM (inactive)	33 µM (inactive)	–	–	26.6 µM (inactive)	26.2	–	21.6 µM (inactive)	19.1 µM (inactive)	19.5 µM (inactive)	41.1 µM (inactive)

Reference: ChEMBL document CHEMBL1201862, “PubChem BioAssay data set” (2004)
